Test results taken from patent US9505783B2, “Method of producing pyrone and pyridone derivatives” (priority 2009, dated 2016).

system: influenza virus; test: CPE inhibitory effect confirming assay; format: cell-based; conditions: unidentified influenza virus, 72 h, read-out: CPE IC50

Structure (SMILES) | IC50
CN1C(=O)c2c(O)c(=O)c(C(=O)O)cn2C[C@H]1C(c1ccccc1)c1ccccc1 [Compound 43] | 1410 nM
O=C(O)c1cn2c(c(O)c1=O)C(=O)N1CCCO[C@H]1[C@@H]2C(c1ccccc1)c1ccccc1 [Compound 175] | 102 nM
CCOC(=O)CCN1CN(C(c2ccccc2)c2ccccc2)n2ccc(=O)c(O)c2C1=O [Compound 128] | 416 nM

biological target: cap-dependent endonuclease (RNP fraction containing PB1•PB2•PA complex) (Influenza A virus, UniProt P15659); test: Measurement of cap-dependent endonuclease (CEN) inhibitory activity; format: biochemical; conditions: RNP enzyme from A/WSN/33 virus, capped Cy3/BHQ2-labelled 30mer RNA substrate, room temperature 60 minutes

Structure (SMILES) | IC50
CN1C(=O)c2c(O)c(=O)c(C(=O)O)cn2C[C@H]1C(c1ccccc1)c1ccccc1 [Compound 43] | 78 nM
O=C(O)c1cn2c(c(O)c1=O)C(=O)N1CCCO[C@H]1[C@@H]2C(c1ccccc1)c1ccccc1 [Compound 175] | 132 nM
CCOC(=O)CCN1CN(C(c2ccccc2)c2ccccc2)n2ccc(=O)c(O)c2C1=O [Compound 128] | 63 nM
